Measured values: patent publication US20080119483A1, “COMPOSITIONS AND METHODS FOR INHIBITING PROTOZOAN GROWTH” (priority 2006, published 2008)
“And” between values parts separate entries of the source, which are not always exact repeats. Equal values may be shown once. “Also recorded” adds a separate entry of the source. Read-outs that look alike come from different tables or passages of the source. Starred links: 1 amine or outer side, 2 acyl side, 3 side chain; linkers in the order of their positions; H or OH if unused. Non-standard residues stand in square brackets, D forms with d. Residues, ends and D or L forms follow the SMILES beside them. X1 = CC[C@@H](C)[C@@H](O[*:1])C(=O)[*:2]; NMeVal(β-OH) = CN[C@H](C(=O)O)C(C)(C)O; NMeF = CN[C@@H](Cc1ccccc1)C(=O)O; aIle = CC[C@@H](C)[C@H](N)C(=O)O; NMeV = CN[C@H](C(=O)O)C(C)C

Assays:
[1] = system: L. major spt2^− promastigotes; assay: microbe, parasite or virus in culture; assay type: cell-based, Leishmania major
Description: (§1) Log phase L. major LV39 WT and spt2 promastigotes were inoculated at 1.0×10^5 cells/ml and culture densities were determined 48 hours later.
(§2) Wild type (WT) L. major LV39 clone 5 (Rho/SU/59/P), FV1 (MOHM/IL/80/Friedlin virulent clone 1), spt2^− (Δspt2::HYG/Dspt2::PAC), ads1^− (Δads1::HYG/Dads1::SAT), and spt2^−/+SPT2 (Δspt2::HYG/Dspt2::PAC/+pXG-SPT2) cells were grown in M199 with 10% FBS and supplements as described [Zhang, et al., 2003; Kapler, et al., 1990]. For growth inhibition assays, promastigotes were inoculated at 1.0×10^5 cells/ml (in T25 flasks, 5 ml of medium per flask) in various concentrations of drugs. All cultures contained equivalent amount of DMSO or methanol (0.1% or less, from drug stocks). After 48 or 96 (for ads1^− only) hours, culture densities were determined using a Coulter counter (Z1, Beckman) and effects of drugs on growth were assessed in relative to cultures grown in the absence of drugs.

[2] = system: L. major LV39 WT promastigotes; assay: microbe, parasite or virus in culture; assay type: cell-based, Leishmania major
Description: as §1, §2
A classical isobologram was constructed by plotting EC50s of drugs either alone or in combination.

[3] = system: L. major ads1^− promastigotes; assay: Growth inhibition assay, EPL-null ads1^− mutant versus FV1 WT; assay type: cell-based, Leishmania major; conditions: 96 hours for ads1^−
Description: as §2

[4] = system: L. major spt2^− promastigotes; assay: Composition of free sterols by GC/MS, spt2^− promastigotes; assay type: cell-based, Leishmania major; conditions: 48 hours
Description: (§3) Log phase L. major LV39 WT and spt2^− promastigotes were grown in the presence or absence of ITZ or CLT. Culture densities were determined 48 hours later and total lipids were extracted and the composition of free sterols was determined by GC/MS as described in Materials and Methods. ND: not detectable. Each experiment was repeated at least 3 times and results from one representative set were shown.
(§4) Here WT and spt2^− parasites were grown in various concentrations of ITZ (0.001 nM to 1 μM) or CLT (10 nM to 5 μM). Effects of ITZ and CLT on growth, sterol composition and DRM were analyzed after 48 hours. Basically, culture densities were determined using a particle counter and drugs' effects on growth were assessed in comparison to control cells (no drug); sterol lipids were extracted and analyzed by GC/MS and the percentage of 14-methylfecosterol (among all detectable sterol lipids) was used to reflect changes in sterol composition (see Table 2). DRMs were also isolated and the percentage of GP63 that were insoluble at 4° C. was used as an indicator for the integrity of DRM (see FIG. 2). Two to four independent experiments were performed and the averaged results were plotted in FIG. 3.
(§5) Total lipids were extracted using the Folch's method [Folch, et al., 1957]. Briefly, promastigotes were harvested by centrifugation and washed once with PBS. Pellets were resuspended in chloroform:methanol (2:1) at 1.0×10^8 cells/ml with the addition of cholesta-3,5-diene (Sigma-Aldrich, FW 368.7) at 0.5 mg/10^8 cells (6.6×10^7/cell). After vortexing for 30 s, cell debris was removed by centrifugation (1000 g for 10 min) and samples were washed with 0.2 volume of 0.9% NaCl. After centrifugation, supernatants were removed and the organic phase solutions were dried under a stream of nitrogen. Samples were then dissolved in chloroform:methanol (1:2) at 1.0×10^9 cells/ml.
(§6) Electron impact gas chromatography/mass spectrometry (GC/MS) analyses of sterol lipids were performed on a Finnigan (San Jose, Calif.) SSQ-7000 single-stage quadrupole mass spectrometer with a Varian (Walnut Creek, Calif.) 3400 GC, which is controlled by Finnigan ICIS software operated on a DEC alpha station. The extracts in solution […] were injected in a splitless mode and analyzed by GC on a Restek (Bellefonte, Pa.) RTX-5 column (15 m, 0.33 mm id, […]). The initial temperature of GC was set at 80° C. for 1 min, increased to 220° C. at a rate of 50° C./min, and then raised to a final temperature of 280° C. at a rate of 10° C./min. The temperatures of the injector, transfer line of the GC column, and of the ion-source were set at 280° C., 280° C., and 240° C., respectively. The full scan mass spectra (50 to 500 Dalton) were acquired at a rate of 1 scan/0.25 Sec.

[5] = system: L. major LV39 WT promastigotes; assay: Composition of free sterols by GC/MS, WT promastigotes; assay type: cell-based, Leishmania major; conditions: for 5-dehydroepisterol (%) / 14-methylfecosterol (%) / Cholesterol (%) / Episterol (%) / Ergosterol (%) / Total sterols/cell: 48 hours
Description: as §3, §4, §5, §6

[6] = system: Leishmania major LV39 clone 5 promastigotes; assay: Microtiter screen for synergy drugs (cellular ATP, luciferase based); assay type: cell-based; conditions: follow-up of class d hits
Description: Following inoculation, parasites were allowed to grow until late logarithmic phase. […] Parasites were inoculated without any drug, singly with the two prototypic synergistic drugs myriocin or itraconazole, or both drugs, at varying concentrations.

[7] = Leishmania major, 48 h, read-out: EC50 in spt2^−
[8] = Leishmania major, 48 h, LV39 WT promastigotes, 48 hours; read-out: EC50 in WT
[9] = spt2^− promastigotes, 48 hours; read-out: EC50 in spt2^−
[10] = LV39 WT promastigotes, 48 hours; read-out: EC50 in WT

Molecule: CCCCCCCCCCCCCCCCCCOCC(COP(=O)([O-])OCC[N+](C)(C)C)OC (racemic) [Edelfosine, 1-O-octadecyl-2-O-methyl-rac-glycero-3-phosphocholine]
- EC50 [1, 7]: 5400 nM
- EC50 (WT)/EC50 (spt2^−) ([1]; ratio): 0.28
- Selectivity against spt2^− parasites (in words) ([1]; spt2^− versus LV39 WT): failed to show strong selectivity
- EC50 [2, 8]: 1500 nM
- Sensitivity of ads1^− mutant in comparison to FV1 WT [3]: very similar EC50s; also recorded: little or no selectivity

Molecule: OC1(c2ccc(-c3ccccc3)cc2)CN2CCC1CC2 (stereo not drawn) [3-(Biphenyl-4-yl)-3-hydroxyquinuclidine]
- EC50 [1, 7]: 1120 nM
- EC50 (WT)/EC50 (spt2^−) ([1]; ratio): 1.4
- Selectivity against spt2^− parasites (in words) ([1]; spt2^− versus LV39 WT): did not cause the extreme hypersensitivity
- EC50 [2, 8]: 1580 nM

Molecule: C[C@@H]1[C@H](O)[C@@H](C)/C=C/C=C/C=C/C=C/C=C/C=C/C=C/[C@H](O[C@@H]2O[C@H](C)[C@@H](O)[C@H](N)[C@@H]2O)C[C@@H]2O[C@](O)(C[C@@H](O)C[C@@H](O)[C@H](O)CC[C@@H](O)C[C@@H](O)CC(=O)O[C@H]1C)C[C@H](O)[C@H]2C(=O)O [Amphotericin B]
- EC50 (WT)/EC50 (spt2^−) ([1]; ratio): 1.9
- EC50 [1, 9]: 22 nM
- Selectivity against spt2^− parasites (in words) ([1]; spt2^− versus LV39 WT): nearly equally well
- EC50 [2, 10]: 41 nM

Molecule: CC[C@@H](C)[C@@H]1NC(=O)[C@@H]2CCCN2C(=O)[C@H](Cc2ccccc2)N(C)C(=O)[C@H](Cc2ccccc2)NC(=O)[C@H](C(C)C)N(C)C(=O)[C@@H]([C@H](C)CC)OC(=O)[C@H](C(C)(C)O)N(C)C(=O)[C@H](CC(C)C)NC(=O)[C@H](C(C)C)N(C)C1=O [Aureobasidin A] (cyclo(F[NMeF]P[aIle][NMeV]L[NMeVal(β-OH)][X1][NMeV]))
- EC50 (WT)/EC50 (spt2^−) ([1]; ratio): 0.90
- EC50 [1, 9]: 620 nM
- EC50 [2, 10]: 560 nM
- Sensitivity of ads1^− mutant in comparison to FV1 WT [3]: very similar EC50s

Molecule: CC(C)[C@@H]1NC(=O)[C@H](Cc2ccccc2)NC(=O)[C@@H]2NC(=O)[C@H](Cc3ccccc3)NC(=O)[C@@H]3CCCN3C(=O)CNC(=O)[C@H](Cc3ccccc3)NC(=O)[C@@H]3CNCCCC[C@@H](C(=O)O)NC(=O)[C@@H]4NC(=O)[C@H](CC(N)=O)NC(=O)CNC(=O)[C@H]([C@@H](O)C(=O)O)NC(=O)[C@H](CSC[C@@H](NC(=O)[C@H](CCC(N)=O)NC(=O)[C@H](CCCNC(=N)N)NC(=O)[C@@H](N)CS[C@H]4C)C(=O)N[C@@H](CS[C@H]2C)C(=O)N3)NC1=O [Cinnamycin]
- EC50 (WT)/EC50 (spt2^−) ([1]; ratio): 1.0
- EC50 [1, 9]: 3100 nM
- Selectivity against spt2^− parasites (in words) ([1]; spt2^− versus LV39 WT): nearly equally well
- EC50 [2, 10]: 3100 nM

Molecule: Clc1ccccc1C(c1ccccc1)(c1ccccc1)n1ccnc1 [Clotrimazole]
- 5-dehydroepisterol (%) ([4]; spt2^− + 0.2 μM CLT): 44.1%
- 14-methylfecosterol (%) ([4]; spt2^− + 0.2 μM CLT): 21.5%
- Cholesterol (%) ([4]; spt2^− + 0.2 μM CLT): 20.2%
- Episterol (%) ([4]; spt2^− + 0.2 μM CLT): 10.7%
- Ergosterol (%) ([4]; spt2^− + 0.2 μM CLT): 3.5%
- Total sterols/cell ([4]; spt2^− + 0.2 μM CLT): 3.5 × 10^8 /cell
- 5-dehydroepisterol (%) ([4]; spt2^− + 0.5 μM CLT): 23.9%
- 14-methylfecosterol (%) ([4]; spt2^− + 0.5 μM CLT): 50.3%
- Cholesterol (%) ([4]; spt2^− + 0.5 μM CLT): 21.1%
- Episterol (%) ([4]; spt2^− + 0.5 μM CLT): 3.5%
- Ergosterol (%) ([4]; spt2^− + 0.5 μM CLT): 1.2%
- Total sterols/cell ([4]; spt2^− + 0.5 μM CLT): 3.1 × 10^8 /cell
- Growth (%) ([1]; spt2^− + 0.2 μM CLT, 48 hours): 93.8%
- Growth (%) ([1]; spt2^− + 0.5 μM CLT, 48 hours): 62.8%
- CLT concentration needed to achieve any noticeable effects on growth, sterol composition, or DRMs [2]: > 100 nM
- Growth (%) [2]: 76.9% and 78.7%
- 5-dehydroepisterol (%) ([5]; WT + 0.2 μM CLT): 63.7%
- 14-methylfecosterol (%) ([5]; WT + 0.2 μM CLT): 9.9%
- Cholesterol (%) ([5]; WT + 0.2 μM CLT): 4.5%
- Episterol (%) ([5]; WT + 0.2 μM CLT): 17.5%
- Ergosterol (%) ([5]; WT + 0.2 μM CLT): 4.4%
- Total sterols/cell ([5]; WT + 0.2 μM CLT): 3.3 × 10^8 /cell
- 5-dehydroepisterol (%) ([5]; WT + 0.5 μM CLT): 42.0%
- 14-methylfecosterol (%) ([5]; WT + 0.5 μM CLT): 47.1%
- Cholesterol (%) ([5]; WT + 0.5 μM CLT): 3.9%
- Episterol (%) ([5]; WT + 0.5 μM CLT): 5.1%
- Ergosterol (%) ([5]; WT + 0.5 μM CLT): 1.9%
- Total sterols/cell ([5]; WT + 0.5 μM CLT): 2.2 × 10^8 /cell

Molecule: CC(=O)N1CCN(c2ccc(OCC3COC(Cn4ccnc4)(c4ccc(Cl)cc4Cl)O3)cc2)CC1 (stereo not drawn) [Ketoconazole]
- EC50 [1, 7]: 10 nM
- EC50 (WT)/EC50 (spt2^−) ([1]; ratio): 310
- Effect of supplementation of ethanolamine or choline on the sensitivity in spt2^− parasites ([1]; spt2^− with EtN or choline): almost no effect
- Effect on growth [2]: only minor effect on growth
- EC50 ([2]; Leishmania major, 48 h, read-out: EC50 in WT): ~3100 nM
- Effect on sterol composition ([5]; LV39 WT, 5-10 nM): completely altered the sterol composition
- Sensitivity of ads1^− mutant in comparison to FV1 WT [3]: hypersensitive

Molecule: CCn1nc(C(=O)O)c(=O)c2cc3c(cc21)OCO3 [cinoxacin]
- Confirmation of synergy with itraconazole [6]: not confirmed

Molecule: C=C(C)C(=O)C(=CC(=O)O)OC [penicillic acid]
- Confirmation of synergy with itraconazole [6]: confirmed
- Synergy effect with itraconazole [6]: ~2 fold

Molecule: Mevinolin
- EC50 (WT)/EC50 (spt2^−) ([1]; ratio): 1.0
- EC50 ([1]; read-out: EC50 in spt2^−; spt2^− promastigotes, 48 hours): 15000 nM
- Selectivity against spt2^− parasites (in words) ([1]; spt2^− versus LV39 WT): did not cause the extreme hypersensitivity
- EC50 ([2]; read-out: EC50 in WT; LV39 WT promastigotes, 48 hours): 15000 nM
